In ChEMBL document CHEMBL5113489, “Design, synthesis, and biological evaluation of membrane-active honokiol derivatives as potent antibacterial agents” (Eur J Med Chem, 2022):
The source made the active and inactive calls. The calls are words filed in the database; no cut-off is given here.

How the values were obtained:
Staphylococcus aureus [1] = assay: Anti-biofilm activity in Staphylococcus aureus ATCC 43300 assessed as inhibition of biofilm formation at 8 ug/ml; type: functional
Staphylococcus aureus [2] = assay: Anti-biofilm activity in Staphylococcus aureus ATCC 43300 assessed as disruption rate of biofilm at 8 ug/ml measured by crystal violet staining method; type: functional; details: dose 8 µg/ml
Escherichia coli [3] = assay: Anti-biofilm activity in Escherichia coli ATCC 25922 assessed as disruption rate of biofilm at 8 ug/ml measured by crystal violet staining method; type: functional; details: dose 8 µg/ml
Cell membrane [4] = assay: Induction of cytoplasmic membrane depolarization in Escherichia coli ATCC 25922 assessed as increase in fluorescence intensity at 1 to 8 times MIC measured by DiSC3-5 dye based fluorescence method; type: subcellular
Escherichia coli [5] = assay: Antibacterial activity against Escherichia coli ATCC 25922 assessed as resistance development by measuring fold increase in MIC; type: functional
[6] = Toxicity in septicemia mouse model infected with Staphylococcus aureus ATCC 43300 assessed as effect on spleen at 5 to 10 mg/kg, administered every 12 hrs for 3 days measured by histopathological analysis; type: organism-based; details: in vivo, dose 5-10 mg/kg
Cell membrane [7] = assay: Induction of cell membrane disruption in Staphylococcus aureus ATCC 43300 assessed as increase in fluorescence intensity at 8 times MIC measured after 2 hrs by DAPI staining based fluorescence microscopic analysis
Staphylococcus aureus [8] = assay: Antibacterial activity against Staphylococcus aureus ATCC 43300; type: functional
Cell membrane [9] = assay: Induction of outer membrane permeabilization to NPN in Escherichia coli ATCC 25922 cells assessed as increase in fluorescence intensity at 4 to 32 ug/ml by NPN-probe based fluorescence spectrophotometric analysis; type: subcellular; details: dose 4-32 µg/ml
Staphylococcus aureus [10] = assay: Anti-biofilm activity in Staphylococcus aureus ATCC 43300 assessed as disruption rate of biofilm at 16 ug/ml measured by crystal violet staining method; type: functional; details: dose 16 µg/ml
Cell membrane [11] = assay: Induction of inner membrane permeabilization in Escherichia coli ATCC 25922 assessed as increase in PI uptake by measuring increase in fluorescence intensity at 4 to 32 ug/ml by propidium iodide staining based fluorescence analysis; type: subcellular; details: dose 4-32 µg/ml
Escherichia coli [12] = assay: Anti-biofilm activity in Escherichia coli ATCC 25922 assessed as disruption rate of biofilm at 32 ug/ml measured by crystal violet staining method; type: functional; details: dose 32 µg/ml
Cell membrane [13] = assay: Induction of cytoplasmic membrane depolarization in Staphylococcus aureus ATCC 43300 assessed as increase in fluorescence intensity at 1 to 8 times MIC measured by DiSC3-5 dye based fluorescence method; type: subcellular
Staphylococcus aureus [14] = assay: In vivo antibacterial activity against Staphylococcus aureus ATCC 43300 in septicemia mouse model assessed as log reduction in bacterial load in kidney at 10 mg/kg, administered every 12 hrs for 3 days; type: functional
Cell membrane [15] = assay: Induction of inner membrane permeabilization in Staphylococcus aureus ATCC 43300 assessed as increase in PI uptake by measuring increase in fluorescence intensity at 1 to 8 ug/ml by propidium iodide staining based fluorescence analysis; type: subcellular; details: dose 1-8 µg/ml
Staphylococcus aureus [16] = assay: Anti-biofilm activity in Staphylococcus aureus ATCC 43300 assessed as disruption rate of biofilm at 4 ug/ml measured by crystal violet staining method; type: functional; details: dose 4 µg/ml
Escherichia coli [17] = assay: Antibacterial activity against Escherichia coli ATCC 25922; type: functional
Staphylococcus aureus [18] = assay: Anti-biofilm activity in Staphylococcus aureus ATCC 43300 assessed as inhibition of biofilm formation at 1 ug/ml; type: functional
Staphylococcus aureus [19] = assay: In vivo antibacterial activity against Staphylococcus aureus ATCC 43300 in septicemia mouse model assessed as reduction in bacterial load in kidney at 10 mg/kg, administered every 12 hrs for 3 days; type: functional; design: scale not given: the % may be the effect or the level left
Staphylococcus aureus [20] = assay: Antibacterial activity against Staphylococcus aureus ATCC 43300 assessed as bacterial killing at 8XMIC incubated for 3 hrs and measured by time-kill kinetic study; type: functional
Staphylococcus aureus [21] = assay: Antibacterial activity against Staphylococcus aureus ATCC 25923; type: functional

Which inhibition at 8 µg/mL (Staphylococcus aureus [1]) does the source give for C=CCc1ccc(OCCC[N+](C)(C)CCCCCC)c(-c2ccc(OCCC[N+](C)(C)CCCCCC)c(CC=C)c2)c1.[Br-].[Br-] here?
Its inhibition at 8 µg/mL is 93.7%.

What about the Activity (Staphylococcus aureus [2]) of the same compound?
The Activity was 28.56%.

And the Activity (Escherichia coli [3])?
Its Activity is 46.42%.

And the Activity (Cell membrane [4])?
Its Activity is “Active”.

What about the “fold change (FC)” value (Escherichia coli [5]) of the same compound?
Its value is under 4.

And the Activity [6]?
Its Activity is “Non-Toxic”.

And the Activity (Cell membrane [7])?
Its Activity is “Active”.

What about the MIC (Staphylococcus aureus [8]) of the same compound?
Its MIC is 1 µg/mL.

And the Activity (Cell membrane [9])?
Its Activity is “Active”.

What about the Activity (Staphylococcus aureus [10]) of the same compound?
The Activity was 39.12%.

And the Activity (Cell membrane [11])?
The Activity was “Active”.

What about the Activity (Escherichia coli [12]) of the same compound?
The Activity was 57.36%.

And the Activity (Cell membrane [13])?
Its Activity is “Active”.

And the “log(activity)” value (Staphylococcus aureus [14])?
Its value is 1.94.

And the Activity (Cell membrane [15])?
The Activity was “Active”.

And the Activity (Staphylococcus aureus [16])?
The Activity was 17.61%.

And the MIC (Escherichia coli [17])?
The MIC was 4 µg/mL.

And the inhibition at 1 µg/mL (Staphylococcus aureus [18])?
Its inhibition at 1 µg/mL is 12.9%.

And the Activity (Staphylococcus aureus [19])?
Its Activity is 98.7%.

And the Activity (Staphylococcus aureus [20])?
The Activity was 100%.

And the MIC (Staphylococcus aureus [21])?
The MIC was 2 µg/mL.
